Measurements reported in patent US9278958B2, “Anti-cancer compounds” (KATHOLIEKE UNIVERSITEIT LEUVEN, priority 2012, dated 2016).
Read-outs that look alike come from different tables or passages of the source.

Legend:
MT-4 cells = assay: Cytostatic assay, MT-4; type: cell-based; settings: Homo sapiens, MT4; Table 2
Description: (§1) To each well of a 96-well microtiter plate were added 5-7.5×10^4 cells and a given amount of the test compound. The cells were allowed to proliferate for 48 h to 96 h (depending on the nature of the cell line) at 37° C. in a humidified CO2-controlled atmosphere. At the end of the incubation period, the cells were counted in a Coulter Counter (Coulter Electronics Ltd, Harpenden Herts, United Kingdom).

HUT-78 cells = assay: Cytostatic assay, HUT-78; type: cell-based; settings: Homo sapiens, HuT78; Table 2
Description: as §1

PLC/PRF/5 hepatoma cells = assay: Cytostatic assay, PLC/PRF/5; type: cell-based; settings: Homo sapiens, Table 4
Description: as §1

Molt4/C8 cells = assay: Cytostatic assay, Molt4/C8; type: cell-based; settings: Table 2
Description: as §1

[1] = system: PC3 (rega) prostate cancer cells; assay: Cytostatic assay, PC3 (rega); type: cell-based; settings: Table 4
Description: as §1

[2] = system: Caki-2 kidney carcinoma cells; assay: Cytostatic assay, Caki-2; type: cell-based; settings: Homo sapiens, Table 3
Description: as §1

[3] = system: DU145 (UZ) prostate cancer cells; assay: Cytostatic assay, DU145 (UZ); type: cell-based; settings: Homo sapiens, DU-145; Table 4
Description: as §1

U87 glioma cells = assay: Cytostatic assay, U87; type: cell-based; settings: Homo sapiens, U-87 MG; Table 3
Description: as §1

[4] = system: HEL embryonic lung fibroblast cells; assay: Cytostatic assay, HEL; type: cell-based; settings: Homo sapiens, Table 3
Description: as §1

Huh-7 hepatoma cells = assay: Cytostatic assay, Huh-7; type: cell-based; settings: Homo sapiens, Table 4
Description: as §1

MT-2 cells = assay: Cytostatic assay, MT-2; type: cell-based; settings: Homo sapiens, MT2; Table 2
Description: as §1

[5] = system: HL60, human leukemia cells; assay: Cytostatic assay, HL-60; type: cell-based; settings: Table 2
Description: as §1

[6] = system: HT29 colorectal carcinoma cells; assay: Cytostatic assay, HT29; type: cell-based; settings: Homo sapiens, HT-29; Table 3
Description: as §1

L1210 cells = assay: Cytostatic assay, L1210; type: cell-based; settings: Mus musculus, Table 2
Description: as §1

[7] = system: 293T embryonic kidney cells; assay: Cytostatic assay, 293T; type: cell-based; settings: Homo sapiens, HEK-293T; Table 3
Description: as §1

[8] = system: Caki-1 kidney carcinoma cells; assay: Cytostatic assay, Caki-1; type: cell-based; settings: Homo sapiens, Table 3
Description: as §1

[9] = system: PC-3 (UZ) prostate cancer cells; assay: Cytostatic assay, PC-3 (UZ); type: cell-based; settings: Table 4
Description: as §1

[10] = system: THP-1, human monocytic cells; assay: Cytostatic assay, THP-1; type: cell-based; settings: Table 2
Description: as §1

[11] = system: LNCaP (UZ) prostate cancer cells; assay: Cytostatic assay, LNCaP (UZ); type: cell-based; settings: Homo sapiens, Table 4
Description: as §1

[12] = system: 22Rv1 (UZ) prostate cancer cells; assay: Cytostatic assay, 22Rv1 (UZ); type: cell-based; settings: Homo sapiens, Table 4
Description: as §1

BPH-1 (UZ) = assay: Cytostatic assay, BPH-1 (UZ); type: cell-based; settings: Homo sapiens, Table 4
Description: as §1

[13] = system: OST TK- osteosarcoma cells; assay: Cytostatic assay, OST TK-; type: cell-based; settings: Homo sapiens; Table 3
Description: as §1

HepG2C3A hepatoma cells = assay: Cytostatic assay, HepG2C3A; type: cell-based; settings: Homo sapiens, HepG2/C3A; Table 4
Description: as §1

[14] = system: U937, human monocytic cells; assay: Cytostatic assay, U937; type: cell-based; settings: U-937, Table 2
Description: as §1

[15] = system: FM3A mammary carcinoma cells; assay: Cytostatic assay, FM3A; type: cell-based, murine; settings: Mus musculus, Table 3
Description: as §1

[16] = system: MCF-7 mammary carcinoma cells; assay: Cytostatic assay, MCF-7; type: cell-based; settings: Homo sapiens, MCF7; Table 3
Description: as §1

[17] = system: HeLa cervix carcinoma cells; assay: Cytostatic assay, HeLa; type: cell-based, human; settings: Homo sapiens; Table 3; read-out: Cytostatic activity (μM) Hela
Description: as §1

C8166 cells = assay: Cytostatic assay, C8166; type: cell-based; settings: Homo sapiens, Table 2
Description: as §1

CEM cells = assay: Cytostatic assay, CEM; type: cell-based; settings: Homo sapiens, CCRF-CEM
Description: as §1

[18] = system: PNT1A (UZ) prostate cells; assay: Cytostatic assay, PNT1A (UZ); type: cell-based; settings: Homo sapiens, Table 4
Description: as §1

Sup T1 cells = assay: Cytostatic assay, Sup T1; type: cell-based; settings: Homo sapiens, Table 2, read-out: Cytostatic activity (μM) Sup T 1
Description: as §1

[19] = system: BAEC aortic endothelial cells; assay: Cytostatic assay, BAEC; type: cell-based, bovine; settings: Bos taurus, Table 3
Description: as §1

[20] = system: Raji, human B-lymphoma cells; assay: Cytostatic assay, Raji; type: cell-based; settings: Table 2
Description: as §1

[21] = Table 1a, read-out: IC50 μM (CEM)
[22] = Table 2, read-out: Cytostatic activity (μM) CEM

Row | Compound | IC50 (MT-4 cells) [µM] | IC50 (HUT-78 cells) [µM] | IC50 (PLC/PRF/5 hepatoma cells) [µM] | IC50 (Molt4/C8 cells) [µM] | IC50 [1] [µM] | IC50 [2] [µM] | IC50 [3] [µM] | IC50 (U87 glioma cells) [µM] | IC50 [4] [µM] | IC50 (Huh-7 hepatoma cells) [µM] | IC50 (MT-2 cells) [µM] | IC50 [5] [µM] | IC50 [6] [µM] | IC50 [7] [µM] | IC50 [8] [µM] | IC50 [9] [µM] | IC50 [10] [µM] | IC50 [11] [µM] | IC50 [12] [µM] | IC50 (BPH-1 (UZ)) [µM] | also measured
1 | CCOC(=O)c1cc(-c2ccccc2OC)sc1N [TR531, 2-Amino-5-(2-methoxy-phenyl)-thiophene-3-carboxylic acid ethyl ester] | 44 ± 5.7 | 108 ± 5.7 | 21 ± 0.71 | 31 ± 2.1 | 25 ± 6.4 | 17 ± 3.5 | 34 ± 4.2 | 38 ± 8.5 | 25 ± 3.5 | 43 ± 12 | 27 ± 4.2 | 17 ± 5.7 | 43 ± 2.8 | 58 ± 7.1 | 17 ± 3.5 | 28 ± 0.71 | 25 ± 19 | 11 ± 5 | 20 ± 5.1 | 39 | IC50 (L1210 cells): 41 ± 3 µM; IC50 [13]: 18 ± 1.4 µM; IC50 (HepG2C3A hepatoma cells): 10 ± 5.2 µM; IC50 [14]: 73 ± 3.5 µM; IC50 [15]: 49 ± 1 µM; IC50 [16]: 48 ± 11 µM; IC50 [17]: 40 ± 9 µM; IC50 (C8166 cells): 133 ± 7.8 µM; IC50 (CEM cells; [21]): 27 µM; IC50 (CEM cells; [22]): 27 ± 10 µM; IC50 [18]: 45 ± 1.4 µM; IC50 (Sup T1 cells): 28 ± 12 µM; IC50 [19]: 31 ± 6.4 µM; IC50 [20]: 48 ± 13 µM
2 | CCOC(=O)c1c(N)sc(CCc2ccc(OC)cc2)c1C(=O)OCC [TR547, 2-Amino-5-[2-(4-methoxy-phenyl)-ethyl]-thiophene-3,4-dicarboxylic acid diethyl ester] | 38 ± 3.5 | 120 ± 44 | 75 ± 35 | 54 ± 6 | 38 ± 12 | 57 ± 24 | 89 ± 16 | 81 ± 27 | 44 ± 3.5 | 51 ± 14 | 31 ± 29 | 46 ± 25 | 46 ± 3.5 | 58 ± 2.8 | 87 ± 21 | 31 ± 5.7 | 26 ± 2.8 | 19 ± 10 | 31 ± 4.2 | 65 ± 9.2 | IC50 (L1210 cells): 105 ± 48 µM; IC50 [13]: 71 ± 7.8 µM; IC50 (HepG2C3A hepatoma cells): 48 ± 16 µM; IC50 [14]: 80 ± 3.5 µM; IC50 [15]: 86 ± 5.6 µM; IC50 [16]: 87 ± 21 µM; IC50 [17]: 41 ± 7.1 µM; IC50 (C8166 cells): 122 ± 12 µM; IC50 (CEM cells; [21]): 72 µM; IC50 (CEM cells; [22]): 72 ± 6.4 µM; IC50 [18]: 56 µM; IC50 (Sup T1 cells): 73 ± 13 µM; IC50 [19]: 82 ± 26 µM; IC50 [20]: 58 ± 13 µM
3 | COC(=O)c1cc(-c2ccc(OC)cc2)sc1N [TR572, 2-Amino-5-(4-methoxy-phenyl)-thiophene-3-carboxylic acid methyl ester] | 40 ± 12 | 26 ± 17 | 42 ± 2.1 | 44 ± 9 | 5.5 ± 4 | 9 ± 1.4 | 18 ± 9.2 | 71 ± 3.5 | 34 ± 20 | 42 ± 7.8 | 12 ± 1.4 | 11 ± 1.4 | 42 ± 3.5 | > 100 | 4.4 ± 1.9 | 4.3 ± 1.7 | 21 ± 0.7 | 1.1 ± 0.84 | 69 ± 44 | 58 ± 6.4 | IC50 (L1210 cells): 60 ± 12 µM; IC50 [13]: 25 ± 2.1 µM; IC50 (HepG2C3A hepatoma cells): 28 ± 8.5 µM; IC50 [14]: 63 ± 7.1 µM; IC50 [15]: 97 ± 32 µM; IC50 [16]: 119 ± 52 µM; IC50 [17]: 63 ± 19 µM; IC50 (C8166 cells): 179 ± 18 µM; IC50 (CEM cells; [21]): 74 µM; IC50 (CEM cells; [22]): 74 ± 3.5 µM; IC50 [18]: 53 ± 2.1 µM; IC50 (Sup T1 cells): 55 ± 30 µM; IC50 [19]: 47 ± 3.5 µM; IC50 [20]: 61 ± 18 µM
4 | COC(=O)c1cc(-c2ccccc2OC)sc1N [TR581, 2-Amino-5-(2-methoxy-phenyl)-thiophene-3-carboxylic acid methyl ester] | 36 ± 15 | 152 ± 44 | 36 ± 4.2 | 39 ± 8 | 26 ± 8.5 | 28 ± 18 | 35 ± 6.4 | 42 ± 5.7 | 24 ± 2.1 | 59 ± 17 | 103 ± 52 | 16 ± 3.5 | 43 ± 1.4 | 72 ± 4.9 | 39 ± 2.1 | 28 ± 4.9 | 69 ± 13 | 9.7 ± 5.1 | 42 ± 7.6 | 50 ± 5.7 | IC50 (L1210 cells): 204 ± 85 µM; IC50 [13]: 45 ± 4.2 µM; IC50 (HepG2C3A hepatoma cells): 38 ± 27 µM; IC50 [14]: 82 ± 7.1 µM; IC50 [15]: 275 ± 206 µM; IC50 [16]: 29 ± 20 µM; IC50 [17]: 41 ± 4.9 µM; IC50 (C8166 cells): 149 ± 14 µM; IC50 (CEM cells; [21]): 55 µM; IC50 (CEM cells; [22]): 55 µM; IC50 [18]: 58 ± 13 µM; IC50 (Sup T1 cells): 45 ± 31 µM; IC50 [19]: 38 ± 2.1 µM; IC50 [20]: 59 ± 11 µM
5 | COC(=O)c1cc(-c2cc(OC)ccc2OC)sc1N [TR601, 2-Amino-5-(2,5-dimethoxy-phenyl)-thiophene-3-carboxylic acid methyl ester] | 50 ± 25 | 109 ± 82 | 26 ± 0.71 | 28 ± 6 | 23 ± 14 | 24 ± 9.2 | 37 ± 2.1 | 25 | 17 ± 5.7 | 49 ± 19 | 14 ± 2.8 | 21 | 42 | 43 ± 16 | 8.8 ± 3.1 | 25 | 25 ± 5.7 | 21 ± 8.5 | 11 ± 4.8 | 31 | IC50 [13]: 32 ± 18 µM; IC50 (HepG2C3A hepatoma cells): 22 ± 18 µM; IC50 [14]: 85 ± 2.8 µM; IC50 [15]: 59 ± 11 µM; IC50 [16]: 44 ± 28 µM; IC50 [17]: 39 ± 9.2 µM; IC50 (C8166 cells): 102 ± 1.4 µM; IC50 (CEM cells; [21]): 42 µM; IC50 (CEM cells; [22]): 42 ± 1.4 µM; IC50 [18]: 38 ± 5.7 µM; IC50 (Sup T1 cells): 38 ± 25 µM; IC50 [19]: 26 ± 7.1 µM; IC50 [20]: 45 ± 11 µM
